{"source": "ChEMBL document CHEMBL3352173", "about": "“Optimization of pyrrolamide topoisomerase II inhibitors toward identification of an antibacterial clinical candidate (AZD5099)” (J Med Chem, 2014)", "key": {"Staphylococcus aureus [1]": {"test_system": "Staphylococcus aureus", "experiment": "Antibacterial activity against methicillin-sensitive Staphylococcus aureus ARC516 infected in ip dosed neutropenic CD1 mouse thigh model assessed as decrease in bacterial viable counts after 24 hrs", "format": "functional, organism-based", "conditions": "Thigh muscle; call rule not given here"}, "Staphylococcus aureus [2]": {"test_system": "Staphylococcus aureus", "experiment": "Antibacterial activity against methicillin-sensitive Staphylococcus aureus ARC516 infected in neutropenic CD1 mouse thigh model assessed as decrease in bacterial viable counts at 30 mg/kg, ip q24", "format": "functional", "conditions": "route intraperitoneal"}, "Mus musculus": {"test_system": "Mus musculus", "experiment": "fAUC in methicillin-sensitive Staphylococcus aureus ARC516 infected in neutropenic CD1 mouse thigh model at 30 mg/kg, ip q24", "format": "ADME, organism-based", "set-up": "dose 30 mg/kg, route intraperitoneal", "conditions": "in vivo"}, "Staphylococcus aureus [3]": {"test_system": "Staphylococcus aureus", "experiment": "Antimicrobial activity against methicillin-resistant Staphylococcus aureus by broth microdilution/CLSI method", "format": "functional"}, "Staphylococcus aureus [4]": {"test_system": "Staphylococcus aureus", "experiment": "Antimicrobial activity against Staphylococcus aureus ARC516 by broth microdilution/CLSI method", "format": "functional"}, "Staphylococcus aureus [5]": {"test_system": "Staphylococcus aureus", "experiment": "Antimicrobial activity against 2 times drug resistance selected Staphylococcus aureus ARC516-1F by broth microdilution/CLSI method", "format": "functional"}, "Staphylococcus aureus [6]": {"test_system": "Staphylococcus aureus", "experiment": "Antimicrobial activity against Staphylococcus aureus ARC1692 by broth microdilution/CLSI method", "format": "functional"}, "Staphylococcus aureus [7]": {"test_system": "Staphylococcus aureus", "experiment": "Antimicrobial activity against 2 times drug resistance selected Staphylococcus aureus ARC1692-1F by broth microdilution/CLSI method", "format": "functional"}, "Staphylococcus aureus [8]": {"test_system": "Staphylococcus aureus", "experiment": "Antimicrobial activity against 2 times drug resistance selected Staphylococcus aureus ARC1692-2F by broth microdilution/CLSI method", "format": "functional"}, "Staphylococcus aureus [9]": {"test_system": "Staphylococcus aureus", "experiment": "Antimicrobial activity against Staphylococcus aureus ARC2381 by broth microdilution/CLSI method", "format": "functional"}, "Staphylococcus aureus [10]": {"test_system": "Staphylococcus aureus", "experiment": "Antimicrobial activity against 2 times drug resistance selected Staphylococcus aureus ARC2381-2F by broth microdilution/CLSI method", "format": "functional"}, "Staphylococcus aureus [11]": {"test_system": "Staphylococcus aureus", "experiment": "Antimicrobial activity against Staphylococcus aureus ARC2398 by broth microdilution/CLSI method", "format": "functional"}, "Staphylococcus aureus [12]": {"test_system": "Staphylococcus aureus", "experiment": "Antimicrobial activity against 2 times drug resistance selected Staphylococcus aureus ARC2398-1F by broth microdilution/CLSI method", "format": "functional"}, "Staphylococcus aureus [13]": {"test_system": "Staphylococcus aureus", "experiment": "Ratio of MIC for 2 times drug resistance selected Staphylococcus aureus ARC516-1F to MIC for Staphylococcus aureus ARC516", "format": "functional"}, "Staphylococcus aureus [14]": {"test_system": "Staphylococcus aureus", "experiment": "Ratio of MIC for 2 times drug resistance selected Staphylococcus aureus ARC1692-2F to MIC for Staphylococcus aureus ARC1692", "format": "functional"}, "Staphylococcus aureus [15]": {"test_system": "Staphylococcus aureus", "experiment": "Ratio of MIC for 2 times drug resistance selected Staphylococcus aureus ARC2398-1F to MIC for Staphylococcus aureus ARC2398", "format": "functional"}, "Staphylococcus aureus [16]": {"test_system": "Staphylococcus aureus", "experiment": "Ratio of MIC for 2 times drug resistance selected Staphylococcus aureus ARC2398-2F to MIC for Staphylococcus aureus ARC2398", "format": "functional"}, "[17]": {"target": "Voltage-gated inwardly rectifying potassium channel KCNH2 (Homo sapiens, UniProt Q12809)", "sequence (Q12809 whole entry)": "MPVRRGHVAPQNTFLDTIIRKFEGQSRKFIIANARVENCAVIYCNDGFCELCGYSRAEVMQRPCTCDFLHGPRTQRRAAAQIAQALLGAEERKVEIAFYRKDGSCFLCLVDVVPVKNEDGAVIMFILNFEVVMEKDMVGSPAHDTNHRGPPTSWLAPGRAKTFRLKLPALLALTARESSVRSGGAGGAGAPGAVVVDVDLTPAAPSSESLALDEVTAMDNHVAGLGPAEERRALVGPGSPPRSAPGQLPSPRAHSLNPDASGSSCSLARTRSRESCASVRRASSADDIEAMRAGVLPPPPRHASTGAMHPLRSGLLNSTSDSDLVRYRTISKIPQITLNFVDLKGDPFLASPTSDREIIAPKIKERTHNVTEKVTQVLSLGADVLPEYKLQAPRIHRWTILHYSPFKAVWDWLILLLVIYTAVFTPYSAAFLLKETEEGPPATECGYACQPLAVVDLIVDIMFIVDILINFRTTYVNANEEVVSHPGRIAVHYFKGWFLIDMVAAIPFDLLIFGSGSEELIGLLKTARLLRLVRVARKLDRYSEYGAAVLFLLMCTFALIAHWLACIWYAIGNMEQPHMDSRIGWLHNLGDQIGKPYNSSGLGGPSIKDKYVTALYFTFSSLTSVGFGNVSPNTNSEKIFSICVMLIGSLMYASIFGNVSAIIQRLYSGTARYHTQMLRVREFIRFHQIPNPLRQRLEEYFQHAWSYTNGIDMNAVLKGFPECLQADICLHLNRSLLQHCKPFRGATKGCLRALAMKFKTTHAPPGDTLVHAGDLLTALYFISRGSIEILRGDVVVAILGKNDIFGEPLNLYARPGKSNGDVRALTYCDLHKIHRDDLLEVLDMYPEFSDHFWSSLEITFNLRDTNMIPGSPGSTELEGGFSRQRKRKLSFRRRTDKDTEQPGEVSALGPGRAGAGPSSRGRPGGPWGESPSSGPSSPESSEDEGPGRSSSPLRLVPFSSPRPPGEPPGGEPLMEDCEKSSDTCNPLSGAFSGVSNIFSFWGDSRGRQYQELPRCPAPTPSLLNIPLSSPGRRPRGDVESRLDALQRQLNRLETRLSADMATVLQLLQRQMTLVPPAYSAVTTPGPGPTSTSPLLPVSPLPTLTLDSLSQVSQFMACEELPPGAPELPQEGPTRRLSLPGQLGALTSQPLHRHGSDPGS", "experiment": "Inhibition of human ERG at 100 uM"}, "Cytochrome P450 2C9": {"target": "Cytochrome P450 2C9 (Homo sapiens, UniProt P11712)", "sequence (P11712 whole entry)": "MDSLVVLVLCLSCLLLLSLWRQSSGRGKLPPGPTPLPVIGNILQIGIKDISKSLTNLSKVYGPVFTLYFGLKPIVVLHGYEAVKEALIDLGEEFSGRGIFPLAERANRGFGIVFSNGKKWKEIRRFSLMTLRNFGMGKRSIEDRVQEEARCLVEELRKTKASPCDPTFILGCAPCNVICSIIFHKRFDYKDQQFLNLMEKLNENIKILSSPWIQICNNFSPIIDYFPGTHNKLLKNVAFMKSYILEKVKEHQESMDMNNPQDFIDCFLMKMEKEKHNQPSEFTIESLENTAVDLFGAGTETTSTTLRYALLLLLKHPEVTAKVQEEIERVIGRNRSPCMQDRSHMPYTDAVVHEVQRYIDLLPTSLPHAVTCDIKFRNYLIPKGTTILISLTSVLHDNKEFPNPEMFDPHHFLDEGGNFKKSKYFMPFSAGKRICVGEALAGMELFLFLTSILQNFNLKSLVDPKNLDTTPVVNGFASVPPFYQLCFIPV", "experiment": "Inhibition of human CYP2C9 at 50 uM", "format": "ADME"}, "[18]": {"target": "ATP-binding cassette sub-family C member 2 (Homo sapiens, UniProt Q92887)", "sequence (Q92887 whole entry)": "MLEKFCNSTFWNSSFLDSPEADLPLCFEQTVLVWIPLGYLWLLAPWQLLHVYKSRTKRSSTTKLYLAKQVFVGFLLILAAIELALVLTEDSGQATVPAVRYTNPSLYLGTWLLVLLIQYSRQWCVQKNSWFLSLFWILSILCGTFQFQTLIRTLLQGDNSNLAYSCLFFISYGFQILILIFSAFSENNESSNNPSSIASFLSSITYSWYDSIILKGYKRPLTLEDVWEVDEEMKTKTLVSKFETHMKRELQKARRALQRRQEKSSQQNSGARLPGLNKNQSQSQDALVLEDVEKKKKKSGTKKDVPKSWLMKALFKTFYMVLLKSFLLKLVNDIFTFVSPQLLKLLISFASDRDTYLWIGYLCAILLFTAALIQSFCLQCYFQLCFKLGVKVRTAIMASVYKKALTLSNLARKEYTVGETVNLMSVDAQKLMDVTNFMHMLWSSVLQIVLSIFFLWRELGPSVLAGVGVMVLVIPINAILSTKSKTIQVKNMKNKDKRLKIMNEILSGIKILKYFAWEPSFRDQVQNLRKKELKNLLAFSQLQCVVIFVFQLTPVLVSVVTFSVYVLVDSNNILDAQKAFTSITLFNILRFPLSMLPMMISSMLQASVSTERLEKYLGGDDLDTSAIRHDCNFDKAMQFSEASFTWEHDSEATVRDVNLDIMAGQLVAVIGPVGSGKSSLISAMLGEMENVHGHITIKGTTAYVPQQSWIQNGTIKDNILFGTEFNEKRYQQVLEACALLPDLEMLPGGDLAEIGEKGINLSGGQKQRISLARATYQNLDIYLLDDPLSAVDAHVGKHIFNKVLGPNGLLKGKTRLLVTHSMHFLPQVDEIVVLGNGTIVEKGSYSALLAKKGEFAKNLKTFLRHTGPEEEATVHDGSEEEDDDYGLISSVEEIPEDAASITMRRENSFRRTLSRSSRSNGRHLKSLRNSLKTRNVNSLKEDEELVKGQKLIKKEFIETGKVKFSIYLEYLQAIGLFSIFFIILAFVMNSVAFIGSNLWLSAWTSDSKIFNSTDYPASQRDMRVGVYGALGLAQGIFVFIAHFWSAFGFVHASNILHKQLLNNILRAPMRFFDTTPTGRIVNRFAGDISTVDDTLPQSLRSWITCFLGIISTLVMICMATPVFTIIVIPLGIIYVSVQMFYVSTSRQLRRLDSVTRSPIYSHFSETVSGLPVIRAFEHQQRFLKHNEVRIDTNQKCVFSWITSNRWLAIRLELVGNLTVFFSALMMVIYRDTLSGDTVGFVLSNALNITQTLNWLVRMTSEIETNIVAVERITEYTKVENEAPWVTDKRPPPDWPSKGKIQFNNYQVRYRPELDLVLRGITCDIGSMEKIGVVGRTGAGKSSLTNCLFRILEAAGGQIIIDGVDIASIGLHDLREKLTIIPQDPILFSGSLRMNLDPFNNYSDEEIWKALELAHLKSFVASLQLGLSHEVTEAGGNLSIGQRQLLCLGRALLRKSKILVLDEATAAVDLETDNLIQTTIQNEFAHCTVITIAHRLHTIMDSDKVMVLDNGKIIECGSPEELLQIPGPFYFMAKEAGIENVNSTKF", "experiment": "Stimulation of ATPase activity of human MRP2 assessed as inorganic phosphate"}, "[19]": {"target": "ATP-binding cassette sub-family C member 2 (Rattus norvegicus, UniProt Q63120)", "sequence (Q63120 whole entry)": "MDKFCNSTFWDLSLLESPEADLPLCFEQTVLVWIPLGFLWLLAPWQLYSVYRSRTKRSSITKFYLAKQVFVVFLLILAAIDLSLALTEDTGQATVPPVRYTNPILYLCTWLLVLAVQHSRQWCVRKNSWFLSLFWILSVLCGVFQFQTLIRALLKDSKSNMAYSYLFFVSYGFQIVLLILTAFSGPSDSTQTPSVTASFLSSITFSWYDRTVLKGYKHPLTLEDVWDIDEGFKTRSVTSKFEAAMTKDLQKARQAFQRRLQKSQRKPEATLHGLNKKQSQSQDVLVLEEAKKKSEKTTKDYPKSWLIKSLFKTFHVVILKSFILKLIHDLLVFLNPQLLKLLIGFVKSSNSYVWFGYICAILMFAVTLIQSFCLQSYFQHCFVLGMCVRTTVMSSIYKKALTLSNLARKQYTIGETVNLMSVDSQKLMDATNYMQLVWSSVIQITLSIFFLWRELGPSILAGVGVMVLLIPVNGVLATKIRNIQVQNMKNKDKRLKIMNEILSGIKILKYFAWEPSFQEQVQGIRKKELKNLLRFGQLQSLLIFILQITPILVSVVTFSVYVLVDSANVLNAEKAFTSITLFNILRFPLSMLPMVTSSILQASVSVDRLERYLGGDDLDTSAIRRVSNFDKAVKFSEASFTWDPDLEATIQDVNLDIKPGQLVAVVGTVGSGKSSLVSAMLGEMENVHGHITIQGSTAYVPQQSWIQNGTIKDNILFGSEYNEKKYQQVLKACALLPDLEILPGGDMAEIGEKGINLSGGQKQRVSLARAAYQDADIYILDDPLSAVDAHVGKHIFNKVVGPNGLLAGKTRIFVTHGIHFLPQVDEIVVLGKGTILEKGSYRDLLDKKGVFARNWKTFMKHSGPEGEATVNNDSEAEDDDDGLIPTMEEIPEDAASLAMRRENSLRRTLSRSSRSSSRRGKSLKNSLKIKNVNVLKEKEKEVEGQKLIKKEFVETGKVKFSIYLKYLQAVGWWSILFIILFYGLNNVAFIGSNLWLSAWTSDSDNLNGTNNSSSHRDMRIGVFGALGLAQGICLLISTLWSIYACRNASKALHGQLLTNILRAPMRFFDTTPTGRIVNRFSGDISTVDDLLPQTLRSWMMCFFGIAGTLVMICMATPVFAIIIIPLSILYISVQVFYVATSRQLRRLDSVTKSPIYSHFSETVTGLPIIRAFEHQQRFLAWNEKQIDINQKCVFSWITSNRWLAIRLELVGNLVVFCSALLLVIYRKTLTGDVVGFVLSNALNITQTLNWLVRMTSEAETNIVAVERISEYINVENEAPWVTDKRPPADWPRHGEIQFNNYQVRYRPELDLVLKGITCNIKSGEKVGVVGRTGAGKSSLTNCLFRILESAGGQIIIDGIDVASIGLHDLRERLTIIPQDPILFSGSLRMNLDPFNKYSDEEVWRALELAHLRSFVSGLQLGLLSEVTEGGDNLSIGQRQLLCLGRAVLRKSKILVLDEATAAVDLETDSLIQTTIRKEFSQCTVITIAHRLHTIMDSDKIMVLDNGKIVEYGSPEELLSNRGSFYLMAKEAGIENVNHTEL", "experiment": "Inhibition of ATPase activity of rat Mrp2 assessed as inorganic phosphate"}, "Streptococcus pneumoniae": {"test_system": "Streptococcus pneumoniae", "experiment": "Antibacterial activity against Streptococcus pneumoniae by broth microdilution/CLSI method", "format": "functional", "conditions": "Streptococcus pneumoniae; read-out: MIC"}, "Staphylococcus aureus [20]": {"test_system": "Staphylococcus aureus", "experiment": "Antimicrobial activity against methicillin-sensitive Staphylococcus aureus by broth microdilution/CLSI method", "format": "functional", "conditions": "Staphylococcus aureus; read-out: MIC"}, "Escherichia coli [21]": {"test_system": "Escherichia coli", "experiment": "Antimicrobial activity against wild-type Escherichia coli Eco523 by broth microdilution/CLSI method", "format": "functional", "conditions": "Escherichia coli, Eco523; read-out: MIC"}, "Escherichia coli [22]": {"test_system": "Escherichia coli", "experiment": "Antimicrobial activity against Escherichia coli tolC- by broth microdilution/CLSI method", "format": "functional", "conditions": "Escherichia coli; read-out: MIC"}, "[23]": {"experiment": "Ratio of MIC for methicillin, quinolone-resistant Staphylococcus aureus to fraction unbound in human plasma", "format": "ADME"}, "[24]": {"experiment": "Clearance in rat at 10 mg/kg, iv", "format": "ADME, organism-based", "set-up": "dose 10 mg/kg, route intravenous", "conditions": "in vivo"}, "[25]": {"experiment": "Dissociation constant, pKa of the compound", "format": "physicochemical"}, "[26]": {"experiment": "Percentage unbound in mouse plasma", "format": "ADME, cell-free"}, "[27]": {"experiment": "Clearance in CD1 mouse at 10 mg/kg, iv", "format": "ADME, organism-based", "set-up": "dose 10 mg/kg, route intravenous", "conditions": "in vivo"}, "[28]": {"experiment": "Percentage unbound in rat plasma", "format": "ADME, cell-free"}, "[29]": {"experiment": "Clearance in dog at 10 mg/kg, iv", "format": "ADME, organism-based, Canis lupus familiaris", "set-up": "dose 10 mg/kg, route intravenous", "conditions": "plasma"}, "[30]": {"experiment": "Clearance in TR-negative Wistar rat at 10 mg/kg, iv", "format": "ADME, organism-based", "set-up": "dose 10 mg/kg, route intravenous", "conditions": "in vivo"}}, "data": [{"smiles": "COC[C@H](C)NC(=O)c1nc(N2CC[C@@H](NC(=O)c3[nH]c(C)c(Cl)c3Cl)[C@@H](OC)C2)sc1C(=O)O", "note": "[AZD-5099]", "values": [{"measurement": "inhibition", "setting": "Staphylococcus aureus [1]", "value": "Dose-dependent effect"}, {"measurement": "deltalog10CFU", "setting": "Staphylococcus aureus [2]", "value": 1.51}, {"measurement": "fAUC", "setting": "Mus musculus", "value": 5450, "unit": "ng·h/mL"}, {"measurement": "MIC90", "setting": "Staphylococcus aureus [3]", "value": 0.06, "unit": "µg/mL"}, {"measurement": "MIC", "setting": "Staphylococcus aureus [4]", "value": 0.016, "unit": "µg/mL"}, {"measurement": "MIC", "setting": "Staphylococcus aureus [5]", "value": 0.25, "unit": "µg/mL"}, {"measurement": "MIC", "setting": "Staphylococcus aureus [6]", "value": 0.06, "unit": "µg/mL"}, {"measurement": "MIC", "setting": "Staphylococcus aureus [7]", "value": 0.5, "unit": "µg/mL"}, {"measurement": "MIC", "setting": "Staphylococcus aureus [8]", "value": 0.5, "unit": "µg/mL"}, {"measurement": "MIC", "setting": "Staphylococcus aureus [9]", "value": 0.016, "unit": "µg/mL"}, {"measurement": "MIC", "setting": "Staphylococcus aureus [10]", "value": 0.13, "unit": "µg/mL"}, {"measurement": "MIC", "setting": "Staphylococcus aureus [11]", "value": 0.03, "unit": "µg/mL"}, {"measurement": "MIC", "setting": "Staphylococcus aureus [12]", "value": 0.5, "unit": "µg/mL"}, {"measurement": "Ratio", "setting": "Staphylococcus aureus [13]", "value": 16}, {"measurement": "Ratio", "setting": "Staphylococcus aureus [14]", "value": 8}, {"measurement": "Ratio", "setting": "Staphylococcus aureus [15]", "value": 16}, {"measurement": "Ratio", "setting": "Staphylococcus aureus [16]", "value": 16}, {"measurement": "inhibition (INH)", "setting": "[17]", "value": "Not Active"}, {"measurement": "inhibition (INH)", "setting": "Cytochrome P450 2C9", "value": "Not Active"}, {"measurement": "EC50", "setting": "[18]", "value": "> 200", "unit": "µM"}, {"measurement": "IC50", "setting": "[19]", "value": 200, "unit": "µM"}, {"measurement": "MIC", "setting": "Streptococcus pneumoniae", "value": 0.016, "unit": "µg/mL"}, {"measurement": "MIC", "setting": "Staphylococcus aureus [20]", "value": 0.036, "unit": "µg/mL"}, {"measurement": "MIC", "setting": "Escherichia coli [21]", "value": 24, "unit": "µg/mL"}, {"measurement": "MIC", "setting": "Escherichia coli [22]", "value": 0.94, "unit": "µg/mL"}, {"measurement": "Ratio", "setting": "[23]", "value": 2.3}, {"measurement": "clearance", "setting": "[24]", "value": 14, "unit": "mL/min/kg"}, {"measurement": "pKa", "setting": "[25]", "value": 4.2}, {"measurement": "fraction unbound", "setting": "[26]", "value": 0.047}, {"measurement": "clearance", "setting": "[27]", "value": 10, "unit": "mL/min/kg"}, {"measurement": "fraction unbound", "setting": "[28]", "value": 0.034}, {"measurement": "clearance", "setting": "[29]", "value": 0.64, "unit": "mL/min/kg"}, {"measurement": "clearance", "setting": "[30]", "value": 2.1, "unit": "mL/min/kg"}]}]}
